# From ChEMBL document CHEMBL1201862, “PubChem BioAssay data set” (2004)
#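 Assay format: 96-well plates, 48-hour exposure. GI50 is the concentration that inhibits growth by half.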 Active and inactive are the calls of the source. Rule as the data show it: active = GI50 up to about 1.1 µM and inactive = higher.
# Columns and labels:
# Assay in all cases: growth of human tumour cells (NCI), 48 h
# CAKI-1 = tested on: CAKI-1
# COLO 205 = tested on: COLO 205
# EKVX = tested on: EKVX
# HCC 2998 = tested on: HCC 2998
# HCT-15 = tested on: HCT-15
# HL-60 = tested on: HL-60
# HOP-92 = tested on: HOP-92
# K562 = tested on: K562
# KM12 = tested on: KM12
# MOLT-4 = tested on: MOLT-4
# NCI-H226 = tested on: NCI-H226
# NCI-H522 = tested on: NCI-H522
# RPMI-8226 = tested on: RPMI-8226
# SK-MEL-5 = tested on: SK-MEL-5
# SK-OV-3 = tested on: SK-OV-3
# TK-10 = tested on: TK-10
# UACC-257 = tested on: UACC-257
# DU-145 = tested on: DU-145
# MDA-MB-435 = tested on: MDA-MB-435
# T47D = tested on: T47D
Structure (SMILES),GI50 (CAKI-1),GI50 (COLO 205),GI50 (EKVX),GI50 (HCC 2998),GI50 (HCT-15) [µM],GI50 (HL-60),GI50 (HOP-92),GI50 (K562),GI50 (KM12),GI50 (MOLT-4),GI50 (NCI-H226),GI50 (NCI-H522),GI50 (RPMI-8226),GI50 (SK-MEL-5),GI50 (SK-OV-3),GI50 (TK-10),GI50 (UACC-257),GI50 (DU-145),GI50 (MDA-MB-435),GI50 (T47D)
O=C1C2=C(SCCS2)C(=O)c2ccccc21,1.9 µM (inactive),1.61 µM (inactive),1.39 µM (inactive),1.65 µM (inactive),1.7,2.31 µM (inactive),1.68 µM (inactive),1.77 µM (inactive),1.77 µM (inactive),2.23 µM (inactive),2.08 µM (inactive),1.76 µM (inactive),1.79 µM (inactive),1.69 µM (inactive),1.73 µM (inactive),1.84 µM (inactive),1.95 µM (inactive),,,
Nn1c(CCCCCCCCc2nnc(COc3ccc(Cl)cc3)n2N)nnc1COc1ccc(Cl)cc1,16.9 µM (inactive),> 100 µM (inactive),> 100 µM (inactive),> 100 µM (inactive),> 100,,> 100 µM (inactive),> 100 µM (inactive),> 100 µM (inactive),49.5 µM (inactive),> 100 µM (inactive),81.1 µM (inactive),> 100 µM (inactive),> 100 µM (inactive),> 100 µM (inactive),78 µM (inactive),> 100 µM (inactive),> 100 µM (inactive),> 100 µM (inactive),
S=c1oc(CCCCCCCCc2nn(CNc3ccccc3)c(=S)o2)nn1CNc1ccccc1,> 100 µM (inactive),> 100 µM (inactive),> 100 µM (inactive),> 100 µM (inactive),> 100,,> 100 µM (inactive),57.5 µM (inactive),> 100 µM (inactive),> 100 µM (inactive),> 100 µM (inactive),> 100 µM (inactive),> 100 µM (inactive),> 100 µM (inactive),> 100 µM (inactive),> 100 µM (inactive),> 100 µM (inactive),> 100 µM (inactive),> 100 µM (inactive),
c1ccc2c(c1)nc1n2CCCn2ccnc2-1,,> 100 µM (inactive),43 µM (inactive),,41.1,0.225 µM (active),> 100 µM (inactive),> 100 µM (inactive),> 100 µM (inactive),> 100 µM (inactive),68.7 µM (inactive),> 100 µM (inactive),> 100 µM (inactive),87.3 µM (inactive),0.0137 µM (active),,,> 100 µM (inactive),,57.3 µM (inactive)
Cc1cc2nc3c(C#N)c(-c4ccccc4)cc(Nc4cccc(C(F)(F)F)c4)n3c2cc1C,4.85 µM (inactive),4.17 µM (inactive),4.68 µM (inactive),3.84 µM (inactive),4.73,,,0.392 µM (active),4.07 µM (inactive),,3.86 µM (inactive),4.49 µM (inactive),1.61 µM (inactive),3.21 µM (inactive),6.1 µM (inactive),7.69 µM (inactive),3.48 µM (inactive),,5.13 µM (inactive),4.16 µM (inactive)
O=C1c2ccccc2OP(=O)(OCC(F)(F)F)OC1(C(F)(F)F)C(F)(F)F (centres undefined),> 100 µM (inactive),> 100 µM (inactive),> 100 µM (inactive),> 100 µM (inactive),> 100,> 100 µM (inactive),> 100 µM (inactive),> 100 µM (inactive),> 100 µM (inactive),> 100 µM (inactive),> 100 µM (inactive),> 100 µM (inactive),> 100 µM (inactive),> 100 µM (inactive),> 100 µM (inactive),> 100 µM (inactive),> 100 µM (inactive),,,
Cc1ccc(Nc2cn(COCc3ccccc3)c(=O)[nH]c2=O)cc1,65.5 µM (inactive),> 100 µM (inactive),> 100 µM (inactive),> 100 µM (inactive),> 100,> 100 µM (inactive),> 100 µM (inactive),> 100 µM (inactive),> 100 µM (inactive),> 100 µM (inactive),> 100 µM (inactive),,> 100 µM (inactive),> 100 µM (inactive),,,> 100 µM (inactive),> 100 µM (inactive),> 100 µM (inactive),
Cc1ccc(Cl)c2c(=O)c3ccc(N)cc3sc12,24.9 µM (inactive),16.6 µM (inactive),5.55 µM (inactive),,21.1,2.99 µM (inactive),,18.4 µM (inactive),14.7 µM (inactive),11.7 µM (inactive),17.3 µM (inactive),,15 µM (inactive),17.5 µM (inactive),,38.3 µM (inactive),25.8 µM (inactive),26.1 µM (inactive),,18.9 µM (inactive)
O=C(Cc1ccccc1[N+](=O)[O-])C(CO)c1ccccc1[N+](=O)[O-] (centres undefined),40.5 µM (inactive),> 100 µM (inactive),70.6 µM (inactive),> 100 µM (inactive),> 100,67.1 µM (inactive),23.6 µM (inactive),71.1 µM (inactive),> 100 µM (inactive),35.7 µM (inactive),15.6 µM (inactive),16.8 µM (inactive),78.7 µM (inactive),31.7 µM (inactive),> 100 µM (inactive),> 100 µM (inactive),72.3 µM (inactive),,,
